Test results taken from patent US4243683A, “Tertiary alcohols” (May & Baker Limited, priority 1977, dated 1981).
“And” between values parts separate entries of the source, which are not always exact repeats. Equal values may be shown once. Read-outs that look alike come from different tables or passages of the source.

Experiments:
[1] = system: female rats; details: rat, in vivo, po, 1 mg/kg
Experimental: (§1) In tests, four female rats and one female dog were each dosed orally with compound A at a rate of 1.0 mg/kg animal body weight. Before administration to the animals the compound was dissolved in a minimum quantity of a 1% w/w solution of Tween 80 emulsifier ("Tween" is a registered Trade Mark) in ethanol, and the resulting solution was diluted with distilled water to a concentration of 0.02% w/w.

[2] = system: female dog; details: in vivo, po, 1 mg/kg
Experimental: as §1

[3] = system: Lucilia sericata prepupae; assay: Lucilia pupae, topical treatment of prepupae; type: in vivo
Experimental: Lucilia sericata prepupae (taken from a batch of the insects of which approximately 50% were pupated) in groups of 10 were each treated topically with 1 μl of a solution of a test compound in acetone. Controls were treated with acetone alone. The insects were stored in the dark at 30° C. for 8 days, and then the number of insects which had hatched as normal adult flies, and any other effects, were observed.

[4] = system: hamsters; assay: Antifertility in hamsters (termination of pregnancy, subcutaneous); type: in vivo, hamster; details: Mesocricetus auratus, sc
Experimental: On the 4th day of pregnancy, hamsters were each injected subcutaneously with an aqueous solution of a compound of formula I (prepared by dissolving the compound in a minimum volume of ethanol and diluting to the appropriate volume with 0.9% w/v saline). On the 7th day of pregnancy the hamsters were killed and their uteri were examined.
Alternatively, the hamsters were dosed on 3 consecutive days (the 3rd, 4th and 5th days of pregnancy) and killed on the 12th day of pregnancy.
The dose required for termination of pregnancy in 50% of the hamsters (ED50) was calculated mathematically.

[5] = system: uterine contraction in rats; assay: Stimulation of uterine contraction in rats compared with PGE1; type: in vivo, rat; details: for Activity (compared with PGE1): intravenous, ratio to PGE1
Experimental: Pregnant anaesthetised rats were treated with the compounds of the invention by the intravenous or intravaginal route and the activity of each compound in stimulating uterine contraction was compared with that of a standard compound, the expensive prostaglandin E1 (PGE1), and expressed as a ratio.

[6] = system: ticks (Ornithodoros moubata Murray); assay: Ticks, first instar, fed on blood containing test compound; type: in vivo; details: 5.0 μg per 0.3 ml blood, 14 days at 30° C.
Experimental: First instar ticks (Ornithodoros moubata Murray) were allowed to engorge through a stretched artificial membrane (Parafilm M) on blood at 37° C. and containing a test compound added in a suitable solvent at a rate of 5.0 μg per 0.3 ml blood. Mortality and moulting were observed after 14 days holding at 30° C.

[7] = system: houseflies (Musca domestica L.); assay: Houseflies, injection in dorsal thorax, mortality and egg hatch; type: in vivo; details: for % egg hatch: 48 hours; for % mortality: 24 hours, 1440 min
Experimental: Adult houseflies (Musca domestica L.) of mixed sex were injected in the dorsal thorax with 1.0 μl of a solution of a test compound in a mixture of acetone and physiological saline (1:1 v/v). Anaesthesia with carbon dioxide was used, and subsequent holding was at 25° C. A source of honey-water was provided. Fly mortality and oviposition were recorded after 24 hours and egg hatching after 48 hours. Similar, control, experiments were carried out using a mixture of acetone and physiological saline alone.

[8] = system: mosquito larvae (Aedes aegypti L.); assay: Mosquito larvae in water containing test compound; type: in vivo; details: 25° C.
Experimental: Mosquito larvae (Aedes aegypti L.), at the late third or early fourth instar stage, were introduced into water containing a small concentration of a test compound, at 25° C. The water also contained 0.4% v/v acetone which had been employed as the vehicle for the introduction of the test compound. The larvae were fed with dried powdered bovine liver after 2 hours. After 24 hours at 25° C. a mortality count was made, and subsequent metamorphosis and emergence as adults were observed after seven days at 25° C., and compared with controls.

[9] = 288 h, dosed 3rd, 4th and 5th days of pregnancy, examined day 12, read-out: ED50 (dose required for termination of pregnancy in 50% of the hamsters)
[10] = 168 h, dosed 4th day of pregnancy, examined day 7, read-out: ED50 (dose required for termination of pregnancy in 50% of the hamsters)
[11] = Musca domestica, 24 h, 0.5 μg/fly
[12] = Musca domestica, 24 h, 0.25 μg/fly
[13] = test 1, 1.0 μg/prepupa, 8 days at 30° C., control 10

Compound | Activity (compared with PGE1) [5] | % mortality [6] [%] | % moulting normally [6] [%] | % egg hatch ([7]; 0.5 μg/fly) | mortality at 0.5 µg/fly [7, 11] [%] | also measured
C[C@@H](C/C=C/C(=O)COc1ccccc1)CCCC(C)(C)O [A, (R)-2-hydroxy-2,6-dimethyl-11-phenoxyundec-8-trans-en-10-one] | 3.7 | – | – | – | – | weight loss [1]: no weight loss; weight loss [2]: no weight loss; Number hatched (out of 10) ([3]; test 3, 1.0 μg/prepupa, control 9): 2 out of 10; ED50 [4, 9]: ~2 mg/kg; times as active as PGE1 ([5]; pervaginal): over 100 times
C[C@@H](C/C=C/C(=O)COc1ccccc1Cl)CCCC(C)(C)O [B, (R)-11-(2-chlorophenoxy)-2-hydroxy-2,6-dimethylundec-8-trans-en-10-one] | 1.2 | – | – | – | – | –
C[C@@H](C/C=C/C(=O)COc1ccc(Cl)cc1)CCCC(C)(C)O [C, (R)-11-(4-chlorophenoxy)-2-hydroxy-2,6-dimethylundec-8-trans-en-10-one] | 0.32 | – | – | – | – | –
CCCCC(C)(C)C(O)/C=C/C[C@H](C)CCCC(C)(C)O (stereo partly drawn) [Compound T, (6R,10RS)-2,6,11,11-tetramethylpentadec-8-trans-ene-2,10-diol] | – | – | – | – | – | ED50 [4, 10]: 2 mg/kg
C[C@@H](C/C=C/C(=O)CCCc1ccccc1)CCCC(C)(C)O [F, (R)-2-hydroxy-2,6-dimethyl-13-phenyltridec-8-trans-en-10-one] | 0.91 | – | – | – | – | –
C[C@@H](C/C=C/C(=O)CCc1ccccc1)CCCC(C)(C)O [G, (R)-2-hydroxy-2,6-dimethyl-12-phenyldodec-8-trans-en-10-one] | 0.67 | 0 | 0 | no eggs | 60 | ED50 [4, 10]: 5 mg/kg; ED50 [4, 9]: 4 mg/kg; % egg hatch ([7]; 0.1 μg/fly): 100%; mortality at 0.1 µg/fly ([7]; Musca domestica, 24 h, 0.1 μg/fly): 60%
C[C@@H](C/C=C/C(=O)Cc1ccccc1)CCCC(C)(C)O [I, (R)-2-hydroxy-2,6-dimethyl-11-phenylundec-8-trans-en-10-one] | 0.09 | – | – | – | – | –
CCCCCC(=O)/C=C/C[C@H](C)CCCC(C)(C)O [J, (R)-2-hydroxy-2,6-dimethylpentadec-8-trans-en-10-one] | 0.02 | – | – | – | – | –
CCCCC(C)(C)C(=O)/C=C/C[C@H](C)CCCC(C)(C)O [K, (R)-2-hydroxy-2,6,11,11-tetramethylpentadec-8-trans-en-10-one] | 0.57 | – | – | – | – | ED50 [4, 9]: < 0.5 mg/kg
C[C@@H](C/C=C/C(=O)CCc1ccc(Cl)cc1)CCCC(C)(C)O [L, (R)-12-(4-chlorophenyl)-2-hydroxy-2,6-dimethyldodec-8-trans-en-10-one] | – | 0 | 0 | no eggs | 80 | –
C[C@@H](C/C=C/C(=O)CCc1cccc(Cl)c1)CCCC(C)(C)O [M, (R)-12-(3-chlorophenyl)-2-hydroxy-2,6-dimethyldodec-8-trans-en-10-one] | – | 0 | 0 | 0% | – | % egg hatch ([7]; 0.25 μg/fly): 100%; % mortality ([7]; 0.5 μg/fly): 80% and 40%; mortality at 0.25 µg/fly [7, 12]: 30%
C[C@@H](C/C=C/C(=O)CCc1ccccc1Cl)CCCC(C)(C)O [N, (R)-12-(2-chlorophenyl)-2-hydroxy-2,6-dimethyldodec-8-trans-en-10-one] | – | 0 | 0 | 100% | 50 | % egg hatch ([7]; 0.25 μg/fly): 100%; % mortality ([7]; 0.5 μg/fly): 60%; mortality at 0.25 µg/fly [7, 12]: 40%
C[C@@H](C/C=C/C(=O)COc1cccc(Cl)c1)CCCC(C)(C)O [O, (R)-11-(3-chlorophenoxy)-2-hydroxy-2,6-dimethylundec-8-trans-en-10-one] | 0.91 | – | – | – | – | –
C[C@@H](C/C=C/C(O)COc1ccccc1)CCCC(C)(C)O (stereo partly drawn) [P, (6R,10RS)-2,6-dimethyl-11-phenoxyundec-8-trans-ene-2,10-diol] | 0.14 | 0 | 0 | no eggs | 50 | Number hatched (out of 10) [3, 13]: 1 out of 10
CCCCCC(O)/C=C/C[C@H](C)CCCC(C)(C)O (stereo partly drawn) [Q, (6R,10RS)-2,6-dimethylpentadec-8-trans-ene-2,10-diol] | 0.05 | 0 | 0 | no eggs | 70 | Number hatched (out of 10) [3, 13]: 0 out of 10; Number hatched (out of 10) ([3]; test 2, 0.2 μg/prepupa, control 7): 6 out of 10; Number hatched (out of 10) ([3]; test 2, 0.4 μg/prepupa, control 7): 5 out of 10; Number hatched (out of 10) ([3]; test 2, 0.6 μg/prepupa, control 7): 1 out of 10; Number hatched (out of 10) ([3]; test 2, 0.8 μg/prepupa, control 7): 0 out of 10; Number hatched (out of 10) ([3]; test 2, 1.0 μg/prepupa, 8 days at 30° C., control 7): 2 out of 10; ED50 [4, 9]: 2 mg/kg
C[C@@H](C/C=C/C(O)CCc1ccccc1)CCCC(C)(C)O (stereo partly drawn) [R, (6R,10RS)-2,6-dimethyl-12-phenyldodec-8-trans-ene-2,10-diol] | 0.14 | 0 | 0 | – | – | ED50 [4, 9]: 0.5 mg/kg; larvae killed within 24 hours ([8]; 0.08 parts per million w/v): all; mortality at 0.04 µg/mL ([8]; Aedes aegypti, 24 h, 0.04 parts per million, read-out: larvae killed within 24 hours): ~50%; % egg hatch ([7]; 0.25 μg/fly): 100%; mortality at 0.25 µg/fly [7, 12]: 40%
C[C@@H](C/C=C/C(O)CCCc1ccccc1)CCCC(C)(C)O (stereo partly drawn) [S, (6R,10RS)-2,6-dimethyl-13-phenyltridec-8-trans-ene-2,10-diol] | – | 29 | 17 | – | 30 | % egg hatch ([7]; 0.25 μg/fly): 100%; % mortality ([7]; 0.5 μg/fly): 40%; mortality at 0.25 µg/fly [7, 12]: 20%
